Experimental data reported in publication PMC5461367, “Neurologically Potent Molecules from Crataegus oxyacantha; Isolation, Anticholinesterase Inhibition, and Molecular Docking” (Frontiers in Pharmacology, 2017).
Values joined by “and” are separate entries in the source; they are usually repeats but may differ in a detail not shown here. Equal values may be shown once. Read-outs that look alike come from different tables or passages of the source.

What was measured:
[1] = molecular target: AChE (Homo sapiens, UniProt P22303); test: biochemical; settings: for inhibition at 62.5 µg/mL: 62.5 μg/ml; for inhibition at 250 µg/mL: 250 μg/ml; for IC50: read-out: AChE IC50 (μM ± SEM)
Description: (§1) This yellow compound is UV detectable and is quantified with the passage of time with and without the impact of inhibitor agent. Briefly, from each enzyme solution, 5 μl were added to wells of micro plate and 5 μl DTNB was added to it. The resultant mixture was incubated for 15 min at 30°C in water bath followed by addition of 5 μl substrate solution. […] Control contains all solutions except inhibitor. Change in absorbance was recorded along with reaction time. At the end, Enzymes and enzymes inhibitory activities by control and our test samples were calculated from the rate of absorption with change in time as (V = Δ Abs /Δ t) and Enzyme inhibition as; Percent Enzyme activity = 100 × V/VMax.
(§2) Where, VMax is enzyme activity in the absence of inhibitor agent.

[2] = molecular target: BChE (Homo sapiens, UniProt P06276); test: biochemical; settings: for inhibition at 62.5 µg/mL / inhibition at 250 µg/mL: read-out: % BChE inhibition; for IC50: read-out: BChE IC50 (μM ± SEM)
Description: as §1, §2

[3] = tested on: human brain based AChE; settings: ref Harvey, 1995; cited from earlier work
[4] = ratio of IC50 values, footnote a not given
[5] = ratio of IC50 values, footnote b not given

Chain of BChE (P06276 29-602): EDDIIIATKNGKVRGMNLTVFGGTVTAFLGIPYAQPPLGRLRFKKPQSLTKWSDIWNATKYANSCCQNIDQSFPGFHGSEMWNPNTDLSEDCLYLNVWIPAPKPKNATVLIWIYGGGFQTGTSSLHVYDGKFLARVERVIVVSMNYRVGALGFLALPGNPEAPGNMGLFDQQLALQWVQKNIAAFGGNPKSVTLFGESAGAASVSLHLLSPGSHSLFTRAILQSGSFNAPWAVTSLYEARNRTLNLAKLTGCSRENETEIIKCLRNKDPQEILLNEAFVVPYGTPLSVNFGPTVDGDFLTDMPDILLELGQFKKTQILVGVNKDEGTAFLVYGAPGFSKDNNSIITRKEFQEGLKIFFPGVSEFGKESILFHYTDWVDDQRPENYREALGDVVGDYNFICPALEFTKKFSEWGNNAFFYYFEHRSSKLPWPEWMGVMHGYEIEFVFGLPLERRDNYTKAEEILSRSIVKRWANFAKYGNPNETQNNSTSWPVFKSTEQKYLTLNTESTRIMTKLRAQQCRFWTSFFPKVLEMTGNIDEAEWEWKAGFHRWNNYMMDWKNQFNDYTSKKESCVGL
Chain of AChE (P22303 32-614): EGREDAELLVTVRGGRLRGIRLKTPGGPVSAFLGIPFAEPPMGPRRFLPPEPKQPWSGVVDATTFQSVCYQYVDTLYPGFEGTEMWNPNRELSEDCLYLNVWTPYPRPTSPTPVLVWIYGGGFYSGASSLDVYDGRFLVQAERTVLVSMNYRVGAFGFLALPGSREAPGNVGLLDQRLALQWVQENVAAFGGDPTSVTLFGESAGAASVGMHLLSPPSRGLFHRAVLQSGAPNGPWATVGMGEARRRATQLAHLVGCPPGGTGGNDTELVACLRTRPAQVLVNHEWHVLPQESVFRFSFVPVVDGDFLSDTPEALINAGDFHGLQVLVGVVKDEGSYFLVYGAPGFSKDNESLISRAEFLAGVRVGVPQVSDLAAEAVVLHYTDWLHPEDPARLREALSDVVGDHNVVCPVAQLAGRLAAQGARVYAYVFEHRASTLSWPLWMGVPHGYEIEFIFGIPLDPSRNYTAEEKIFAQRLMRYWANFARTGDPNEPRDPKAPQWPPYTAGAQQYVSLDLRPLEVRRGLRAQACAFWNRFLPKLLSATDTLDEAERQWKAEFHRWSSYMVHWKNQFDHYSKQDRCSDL

| Compound | inhibition at 62.5 µg/mL [1] [%] | inhibition at 250 µg/mL [1] [%] | AChE selectivity [1, 4] | IC50 [1] [µM] | inhibition at 62.5 µg/mL ([2]; 62.5 μg/ml) [%] | inhibition at 250 µg/mL ([2]; 250 μg/ml) [%] | BChE selectivity [2, 5] | IC50 [2] | AChE selectivity [1] | BChE selectivity [2] | inhibition at 62.5 µg/mL [2] [%] | inhibition at 250 µg/mL [2] [%] | lower potency against human brain based AChE as compared to RBCs variant [3] [times] |
| --- | --- | --- | --- | --- | --- | --- | --- | --- | --- | --- | --- | --- | --- |
| COc1ccc(C(CO)OC)cc1OC (stereo not shown) [Compound 1, 2-(3,4-Dimethoxyphenyl)-2-Methoxyethanol] | 89.7 ± 1.47 | 97.3 ± 1.06 | 0.10 | 23.2 ± 1.02 | 84.3 ± 2.19 | 90.7 ± 1.34 | 9.62 | 2.41 ± 0.09 µM | – | – | – | – | – |
| COc1cc(C(=O)CCO)ccc1O [Compound 2, 3-Hydroxy-1-(4-Hydroxy-3-Methoxyphenyl) Propan-1-One] | 83.74 ± 0.68 | 93.05 ± 0.75 | 0.59 | 25.9 ± 1.35 | 87.6 ± 1.06 | 95.76 ± 0.71 | 1.69 | 15.4 ± 1.01 µM | – | – | – | – | – |
| CCC(CCC(C)C1CCC2C3CC=C4CC(OC5OC(CO)C(O)C(O)C5O)CCC4(C)C3CCC12C)C(C)C [Compound 3, β-Sitosterol-3-O-β-D-Glucopyranoside] | 87.9 ± 0.52 | 95.7 ± 1.6 | 2.26 | 5.22 ± 0.59 | 83.03 ± 0.35 | 94.84 ± 0.3 | 0.47 | 11.8 ± 0.93 µM | – | – | – | – | – |
| C=C(C)[C@@H]1CC[C@]2(C)CC[C@]3(C)[C@H](CC[C@@H]4[C@@]5(C)CC[C@H](O)C(C)(C)[C@@H]5CC[C@]43C)[C@@H]12 [Compound 4, Lupeol] | 77.87 ± 0.26 | 93.73 ± 0.78 | 0.04 | 36.3 ± 1.89 | 85.8 ± 1.5 | 91.42 ± 0.43 | 27.71 | 1.31 ± 0.12 µM | – | – | – | – | – |
| CC[C@H](CC[C@@H](C)[C@H]1CC[C@H]2[C@@H]3CC=C4C[C@@H](O)CC[C@]4(C)[C@H]3CC[C@]12C)C(C)C [Compound 5, β-Sitosterol] | 80 | 91.33 ± 0.49 | – | 14.6 ± 0.85 | 87.08 ± 0.47 | 92.6 ± 1.12 | – | 0.55 µM and 0.56 µM | 0.04 | 26.62 | – | – | – |
| C=C(C)[C@@H]1CC[C@]2(CO)CC[C@]3(C)[C@H](CC[C@@H]4[C@@]5(C)CC[C@H](O)C(C)(C)[C@@H]5CC[C@]43C)[C@@H]12 [Compound 6, 3β, 28-Dihydroxylup-20(29)-ene] | 84 ± 1.15 | 96.13 ± 0.2 | 1.06 | 24 ± 1.1 | 82.5 ± 0.9 | 95.8 ± 2.25 | 0.93 | 25.6 ± 1.25 µM | – | – | – | – | – |
| C=C(C)[C@@H]1CC[C@]2(C(=O)O)CC[C@]3(C)[C@H](CC[C@@H]4[C@@]5(C)CC[C@H](O)C(C)(C)[C@@H]5CC[C@]43C)[C@@H]12 [Compound 7, 3β-Dihydroxylup-20(29)-ene-28-oic Acid] | 77.7 ± 1.25 | 95.7 ± 1.6 | 0.07 | 44.5 ± 1.73 | 87.2 ± 1.28 | 94.1 ± 0.6 | 12.78 | 3.48 ± 0.15 µM | – | – | – | – | – |
| O=c1cc(-c2ccccc2)oc2cc(O)cc(O)c12 [Compound 9, 5,7-Dihydroxyflavone] | 81.2 ± 0.23 | 93.67 ± 0.88 | 0.02 | 32.3 ± 1.8 | 80.9 ± 1.9 | 85 | 51.27 | 0.63 ± 0.06 µM | – | – | – | – | – |
| COc1ccc2c3c1O[C@H]1C[C@@H](O)C=C[C@@]31CCN(C)C2 [Galantamine, reference compound] | – | – | – | – | – | – | – | – | – | – | 87.8 ± 1.01 | 95.3 ± 1.09 | 10 |
